In brackets after ≈: the same amount, converted by molar mass. Where two headings read alike, the source gives them in different places.
Assays:
E. coli ATCC 25922 [1] = assay: MIC, broth microdilution; assay type: cell-based, Escherichia coli
Excerpt: (§1) The microbial strains used in this study were obtained from the collection of the Gause Institute of New Antibiotics. The control strains included in the analysis were S. aureus ATCC 29213, E. coli ATCC 25922, P. aeruginosa ATCC 27853, M. smegmatis ATCC 607. Clinical isolates E. coli MAR17-1350, K. pneumoniae APEX-5, K. pneumoniae MAR14-3395, and K. pneumoniae MAR18-1752 with multidrug resistance, including resistance to aminoglycosides were kindly provided by the Research Institute of Antimicrobial Chemotherapy (RIAC) of the Smolensk State Medical University, Smolensk. The microbial cultures were stored at −75 °C in trypticase soy broth (Becton, Dickinson, France) containing 10–15% glycerol. Storage was carried out in accordance with CLSI guidelines. Prior to experimentation, the bacterial strains were revived from cryopreservation by inoculating them onto trypticase soy agar (Becton, Dickinson, France) and incubating at (36 ± 1) °C for 16–24 h. Individual morphologically homogeneous colonies were then suspended in sterile physiological saline, and the turbidity of the suspension was adjusted to 0.5 McFarland units using a DEN-1 spectrophotometer (Biosan, Riga, Latvia), which corresponds to a concentration of 1.5 × 10^8 CFU/mL.
(§2) The samples were dissolved in sterile distilled water, depending on the physicochemical properties of the compounds under investigation, to a concentration of 10,000 µg/mL. Working solutions were then prepared by serial dilution, resulting in concentrations ranging from 64 µg/mL to 0.125 µg/mL.
(§3) Activity was evaluated by determining the minimum inhibitory concentration (MIC) values using the microdilution method in Mueller–Hinton Broth (Beckton and Dickinson, Le Pont-de-Claix, France), in accordance with the standard procedure for assessing the antimicrobial susceptibility of microorganisms.
(§4) The analysis was conducted in 96-well microtiter plates (Medpolymer, Saint Petersburg, Russia). The bacterial inoculum was introduced within 15 min of preparation. MIC values were determined after incubation for 15–18 h at (36 ± 1) °C. Microbial growth in the presence of the tested compounds was compared to the growth control (without exposure to the test samples). The MIC was defined as the lowest concentration at which visible microbial growth was inhibited.
(§5) To ensure the accuracy of the results, the control antibiotics kanamycin A, gentamycin, and tobramycin (Abcr GmbH, Karlsruhe, Germany) were included, along with standard reference strains: E. coli ATCC 25922. The MIC values for kanamycin A were determined as follows: E. coli ATCC 25922—1–4 µg/mL [22]. For gentamycin, the MIC values were E. coli ATCC 25922–0.25–1 µg/mL [23]. For tobramycin, the MIC values were E. coli ATCC 25922–0.25–1 µg/mL [23]. The MIC values of the reference strains were required to fall within the acceptable ranges specified in [24], provided that standard assay conditions were maintained.

E. coli MAR17-1350 = assay: MIC, MDR clinical isolate; assay type: cell-based; details: E. coli MAR17-1350, MDR clinical isolate (NDM-5)
Excerpt: as §1, §2, §3, §4, §5

K. pneumoniae APEX-5 = assay: MIC, MDR clinical isolate; assay type: cell-based; details: K. pneumoniae APEX-5, MDR clinical isolate (NDM-16)
Excerpt: as §1, §2, §3, §4, §5

K. pneumoniae MAR14-3395 = assay: MIC, MDR clinical isolate; assay type: cell-based; details: K. pneumoniae MAR14-3395, MDR clinical isolate (NDM-1 + OXA-244)
Excerpt: as §1, §2, §3, §4, §5

K. pneumoniae MAR18-1752 = assay: MIC, MDR clinical isolate; assay type: cell-based; details: K. pneumoniae MAR18-1752, MDR clinical isolate (NDM-1)
Excerpt: as §1, §2, §3, §4, §5

E. coli JW5503 kanS = assay: MIC against E. coli JW5503 parent strain; assay type: cell-based
Experimental: (§6) The determination of the MIC values was performed on five strains from the working collection of MSU. E. coli JW5503 [25], which lacked a kanamycin resistance cassette that had been removed as per the method outlined in [26], and a strain derived from this strain through in vitro selection with kanamycin. […] Strains containing AG-modifying enzymes were obtained through the transformation of E. coli JW5503 with plasmids that carried cassettes of resistance, namely pCRISPomyces-2–AAC(3)-IV (Addgene #61737), pdualrep2–APH(3′)-II [27] and pt67–ANT(3″). The MIC determination was performed as described for JW5503 in [19].

[2] = test system: E. coli JW5503 EF-G P610T; assay: MIC against aminoglycoside-resistant EF-G mutant; assay type: cell-based
Experimental: as §6

E. coli JW5503 KanR = assay: MIC against transformant carrying APH(3′)-II; assay type: cell-based
Experimental: as §6

E. coli JW5503 SmR = assay: MIC against transformant carrying ANT(3″); assay type: cell-based
Experimental: as §6

E. coli JW5503 ApmR = assay: MIC against transformant carrying AAC(3)-IV; assay type: cell-based
Experimental: as §6

E. coli ATCC 25922 [3] = details: E. coli ATCC 25922, reference strain quality control; cited from earlier work
P. aeruginosa ATCC 27853 = assay: MIC, broth microdilution; assay type: cell-based; details: Pseudomonas aeruginosa, ATCC27853, Table 1
Excerpt: as §1, §2, §3, §4, §5

S. aureus ATCC 29213 = assay: MIC, broth microdilution; assay type: cell-based; details: Staphylococcus aureus, ATCC29213, Table 1
Excerpt: as §1, §2, §3, §4, §5

M. smegmatis ATCC 607 = assay: MIC, broth microdilution; assay type: cell-based, Mycobacterium smegmatis; details: Mycolicibacterium smegmatis, ATCC607, Table 1
Excerpt: as §1, §2, §3, §4, §5

[4] = test system: E. coli JW5503 with pJC27 β-galactosidase codon 537 reporter; assay: Translation accuracy using β-galactosidase reporters; assay type: cell-based; details: 0.1 μL of 50 mg/mL, 37 °C, 18 h, codon 537 GAC/GGG reporters
Experimental: To evaluate translation accuracy in the presence of antibiotics, E. coli JW5503 (kanamycin resistance cassette removed as per) was transformed with pJC27 plasmids. […] The synthesis of active β-galactosidase depends on translation errors occurring (when codons GAC and GGG are read as GAA). Petri dishes (9 cm) containing 20 mL of solid LB agar (1.5%), supplemented with chloramphenicol (11.3 μg/mL) and X-Gal (80 μg/mL), were prepared. A secondary soft-agar layer comprising 3.5 mL of LB agar (0.6%) supplemented with 11.3 μg/mL chloramphenicol and 0.5 mL of liquid culture (A600~1.0) was added and allowed to solidify. Antibiotics were applied to the plates in 0.1 μL aliquots at a concentration of 50 mg/mL for tobramycin, streptomycin, kanamycin, and apramycin, and for 5a, 5b, 8a, and 8b. The plates were then incubated at 37 °C for 18 h. […] The results were documented using a Samsung Galaxy Tab A71 camera.

[5] = test system: HEK293T human embryonic kidney cell line; assay: Cytotoxicity, MTT test; assay type: cell-based; details: HEK-293T, 72 h, 2-250 µg/mL, read-out: IC50, viability of HEK293T cells
Experimental: The MTT test was performed in order to evaluate the effect of the compounds on eukaryotic cells’ survivability. Compounds 5a,b, 8a,b, and apramycin, as the reference drug, were tested on HEK293T human embryonic kidney cell line (ATCC). Compounds 5a,b, 8a,b, and apramycin were prepared as water solutions with a 50 mg/mL concentration. The HEK293T cell line was cultivated in DMEM/F-12 medium (Paneco LLC, Moscow, Russia) containing 10% FBS, 50 µg/mL penicillin, and 50 µg/mL streptomycin (Thermo Fisher Scientific, USA) at 37 °C in 5% CO2. Triplicates on 96-well plates were used, and 2500 HEK293T cells were seeded in 140 µL of DMEM/F-12 medium in each well during day one. The next day, compounds in twofold successive dilutions were added to these plates (concentrations in wells ranged between 2 and 250 µg/mL for 5a, 5b, and 8a, 8b). Plates were incubated for 72 h at 37 °C in 5% CO2. Afterwards, 0.5 mg/mL of the MTT reagent (Paneco LLC, Moscow, Russia) was added to each well. After 2 h of incubation, the media with MTT was replaced with 140 µL of DMSO, and all plates were placed on a shaker for 10 min for formazan to dissolve. Finally, the absorbance at a 555 nm wavelength was measured on all plates via the plate reader Victor X5 (PerkinElmer, Waltham, MA, USA). The data were then normalized, and dose–response curves and IC50 were calculated by means of GraphPad Prism version 8.0.2. (GraphPad Software, Inc., San Diego, CA, USA).

[6] = Escherichia coli, MAR171350, read-out: MIC
[7] = Klebsiella pneumoniae, APEX5, read-out: MIC
[8] = Klebsiella pneumoniae, MAR143395, read-out: MIC
[9] = Klebsiella pneumoniae, MAR181752, read-out: MIC

Compound | MIC (E. coli MAR17-1350; [6]) | MIC (K. pneumoniae APEX-5; [7]) | MIC (K. pneumoniae MAR14-3395; [8]) | MIC (K. pneumoniae MAR18-1752; [9]) | MIC (E. coli JW5503 kanS; Escherichia coli, JW5503KANS) | MIC ([2]; Escherichia coli) | MIC (E. coli JW5503 KanR; Escherichia coli, JW5503KANR) | MIC (E. coli JW5503 SmR; Escherichia coli, JW5503SMR) | MIC (E. coli JW5503 ApmR; Escherichia coli, JW5503APMR) | MIC, control antibiotic range (E. coli ATCC 25922 [3]) | other results
NC[C@H]1O[C@H](O[C@H]2[C@H](O)[C@@H](O[C@H]3O[C@H](CO)[C@@H](O)[C@H](N)[C@H]3O)[C@H](N)C[C@@H]2N)[C@H](N)C[C@@H]1O [Tobramycin, tobramycin, reference compound] | > 128 µg/mL | 32 µg/mL (≈ 68.4 µM) | > 128 µg/mL | > 128 µg/mL | 2 µg/mL (≈ 4.28 µM) | 16 µg/mL (≈ 34.2 µM) | 2 µg/mL (≈ 4.28 µM) | 4 µg/mL (≈ 8.56 µM) | > 256 µg/mL | 0.25 to 1 µg/mL | MIC (E. coli ATCC 25922 [1]; Escherichia coli, ATCC25922, Table 2, read-out: MIC): 0.5 µg/mL (≈ 1.07 µM)
[H]/N=C(/N)N[C@H]1[C@H](O)[C@@H](O)[C@H](O[C@@H]2O[C@@H](C)[C@](O)(C=O)[C@H]2O[C@@H]2O[C@@H](CO)[C@H](O)[C@@H](O)[C@@H]2NC)[C@@H](N/C(N)=N\[H])[C@@H]1O [Streptomycin, streptomycin, reference compound] |  |  |  |  | 4 µg/mL (≈ 6.88 µM) | 8 µg/mL (≈ 13.8 µM) | 4 µg/mL (≈ 6.88 µM) | > 256 µg/mL | 4 µg/mL (≈ 6.88 µM) |  | 
kanamycin A [reference compound] |  |  |  |  |  |  |  |  |  | 1 to 4 µg/mL | MIC (E. coli ATCC 25922 [1]; Table 2): 2 µg/mL; MIC (E. coli MAR17-1350): >128 µg/mL; MIC (K. pneumoniae APEX-5): >128 µg/mL; MIC (K. pneumoniae MAR14-3395): >128 µg/mL; MIC (K. pneumoniae MAR18-1752): >128 µg/mL; MIC (E. coli JW5503 kanS; E. coli JW5503 kanS (parent strain)): 4 µg/mL; MIC ([2]; E. coli JW5503 EF-G P610T (fusA mutant)): 64 µg/mL; MIC (E. coli JW5503 KanR; E. coli JW5503 KanR, APH(3′)-II on plasmid): >256 µg/mL; MIC (E. coli JW5503 SmR; E. coli JW5503 SmR, ANT(3″) on plasmid): 8 µg/mL; MIC (E. coli JW5503 ApmR; E. coli JW5503 ApmR, AAC(3)-IV on plasmid): 32 µg/mL
CN[C@@H]1[C@@H](O[C@H]2O[C@H](CO)[C@@H](N)[C@H](O)[C@H]2O)OC2C[C@@H](N)[C@@H](O[C@H]3[C@H](O)[C@@H](O)[C@H](N)C[C@@H]3N)OC2[C@@H]1O (stereo partly drawn) [Apramycin (1), apramycin] | 4 µg/mL (≈ 7.41 µM) | 1 µg/mL (≈ 1.85 µM) | 1 µg/mL | 1 µg/mL (≈ 1.85 µM) | 8 µg/mL (≈ 14.8 µM) | 64 µg/mL (≈ 119 µM) | 4 µg/mL (≈ 7.41 µM) | 8 µg/mL (≈ 14.8 µM) | > 256 µg/mL |  | MIC (P. aeruginosa ATCC 27853): 2 µg/mL (≈ 3.71 µM); MIC (S. aureus ATCC 29213): 1 µg/mL (≈ 1.85 µM); MIC (E. coli ATCC 25922 [1]; Escherichia coli, ATCC25922, Table 1, read-out: MIC): 1 µg/mL (≈ 1.85 µM); MIC (M. smegmatis ATCC 607): 0.125 µg/mL (≈ 0.232 µM); induction of translation errors (blue staining at edge of inhibition zone) [4]: blue staining; IC50 [5]: > 250 µg/mL
